The series is described as follows: recombinant barcode read abundance after kanamycin selection (control-corrected) (log10(CPM+1)); higher = more efficient recombination; sequences stand for … in AGTGCAGAGAAAATCGGCCAGTTTTCTCTGCCTGCAGTCCGCATGCCGT…ATTTATGCAGCGGACTGCCTTTCTCCCAAAGTGATAAACCGGACAGTATCATGGACCGGTTTTCCCGGTAATCCGTATTTGCAAGGTTGGTTTCACT; site = the 11-nt target. A digest of the protocol: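 Pooled oligos, each joining a target to an IS621 bridge RNA target-binding loop, were cloned and co-electroporated with a donor plasmid into E. coli. Selective plates carried chloramphenicol/ampicillin/kanamycin and 0.1 mM IPTG, while chloramphenicol/ampicillin LB agar served as control, with two replicates of each. Recombination efficiency rests on averaged, control-corrected counts per million of barcodes at recombinant junctions, shown as log10(CPM+1).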
For “CGAGCCCCTTGGGTTCTAACCTGTTGCTGTA [CGAGCCCCTCA_LTGcore_CT_RTGcore_TA] (site CGAGCCCCTCA) (LTG core: CT, RTG core: TA)”, the “recombinant barcode read abundance (log10)” value is 0.68.

On to “CGAGCCCGATGGGTTCTAACCTGTTGCTGAG [CGAGCCCCTCA_LTGcore_GA_RTGcore_CT] (site CGAGCCCCTCA) (LTG core: GA, RTG core: CT)”, for which the “recombinant barcode read abundance (log10)” value worked out at 0.157.

On to “CGAGCCCGGTGGGTTCTAACCTGTTGCTGCC [CGAGCCCCTCA_LTGcore_GG_RTGcore_GG] (site CGAGCCCCTCA) (LTG core: GG, RTG core: GG)”, for which the “recombinant barcode read abundance (log10)” value amounted to 0.18.

In the case of “CGAGCCCTATGGGTTCTAACCTGTTGCTGAG [CGAGCCCCTCA_LTGcore_TA_RTGcore_CT] (site CGAGCCCCTCA) (LTG core: TA, RTG core: CT)”, the “recombinant barcode read abundance (log10)” value stood at 0.312.

For the sequence “CGAGCCCTCTGGGTTCTAACCTGTTGCTGGA [CGAGCCCCTCA_LTGcore_TC_RTGcore_TC] (site CGAGCCCCTCA) (LTG core: TC, RTG core: TC)”, the “recombinant barcode read abundance (log10)” value is 0.139.

Turning to “CGCGCCCAGTGGGTTCTAACCTGTTGCGGAG [CGCGCCCCTCC_LTGcore_AG_RTGcore_CT] (site CGCGCCCCTCC) (LTG core: AG, RTG core: CT)”, the “recombinant barcode read abundance (log10)” value was found to be 0.0753.

Consider “CGCGCCCATTGGGTTCTAACCTGTTGCGGAT [CGCGCCCCTCC_LTGcore_AT_RTGcore_AT] (site CGCGCCCCTCC) (LTG core: AT, RTG core: AT)”, for which the “recombinant barcode read abundance (log10)” value is 0.0457.

On to “CGCGCCCCTTGGGTTCTAACCTGTTGCGGTC [CGCGCCCCTCC_LTGcore_CT_RTGcore_GA] (site CGCGCCCCTCC) (LTG core: CT, RTG core: GA)”, for which the “recombinant barcode read abundance (log10)” value came out at 0.041.

In the case of “CGCGCCCGCTGGGTTCTAACCTGTTGCGGAG [CGCGCCCCTCC_LTGcore_GC_RTGcore_CT] (site CGCGCCCCTCC) (LTG core: GC, RTG core: CT)”, the “recombinant barcode read abundance (log10)” value turned out to be 0.198.

Take “CGCGCCCGTTGGGTTCTAACCTGTTGCGGAC [CGCGCCCCTCC_LTGcore_GT_RTGcore_GT] (site CGCGCCCCTCC) (LTG core: GT, RTG core: GT)”: the “recombinant barcode read abundance (log10)” value is 0.421.

Regarding “CGCGCCCTCTGGGTTCTAACCTGTTGCGGAG [CGCGCCCCTCC_LTGcore_TC_RTGcore_CT] (site CGCGCCCCTCC) (LTG core: TC, RTG core: CT)”, the “recombinant barcode read abundance (log10)” value turned out to be 0.264.

“CGCGCCCTCTGGGTTCTAACCTGTTGCGGGA [CGCGCCCCTCC_LTGcore_TC_RTGcore_TC] (site CGCGCCCCTCC) (LTG core: TC, RTG core: TC)”: the “recombinant barcode read abundance (log10)” value turned out to be 0.307.

On to “CGCGCCCTGTGGGTTCTAACCTGTTGCGGCA [CGCGCCCCTCC_LTGcore_TG_RTGcore_TG] (site CGCGCCCCTCC) (LTG core: TG, RTG core: TG)”, for which the “recombinant barcode read abundance (log10)” value was found to be 0.0883.

For the sequence “CGCGCCCTTTGGGTTCTAACCTGTTGCGGAA [CGCGCCCCTCC_LTGcore_TT_RTGcore_TT] (site CGCGCCCCTCC) (LTG core: TT, RTG core: TT)”, the “recombinant barcode read abundance (log10)” value was found to be 0.156.

Consider “CGGTCCCAGTGGGTTCTAACCTGTTGCCACT [CGGTCCCCTTG_LTGcore_AG_RTGcore_AG] (site CGGTCCCCTTG) (LTG core: AG, RTG core: AG)”, for which the “recombinant barcode read abundance (log10)” value stood at 0.258.

As to “CGGTCCCCTTGGGTTCTAACCTGTTGCCAAC [CGGTCCCCTTG_LTGcore_CT_RTGcore_GT] (site CGGTCCCCTTG) (LTG core: CT, RTG core: GT)”, the “recombinant barcode read abundance (log10)” value worked out at 0.0684.

As to “CGGTCCCCTTGGGTTCTAACCTGTTGCCAAT [CGGTCCCCTTG_LTGcore_CT_RTGcore_AT] (site CGGTCCCCTTG) (LTG core: CT, RTG core: AT)”, the “recombinant barcode read abundance (log10)” value was found to be 0.133.

As for “CGGTCCCCTTGGGTTCTAACCTGTTGCCACT [CGGTCCCCTTG_LTGcore_CT_RTGcore_AG] (site CGGTCCCCTTG) (LTG core: CT, RTG core: AG)”, the “recombinant barcode read abundance (log10)” value came to 0.0728.

As to “CGGTCCCGCTGGGTTCTAACCTGTTGCCAAG [CGGTCCCCTTG_LTGcore_GC_RTGcore_CT] (site CGGTCCCCTTG) (LTG core: GC, RTG core: CT)”, the “recombinant barcode read abundance (log10)” value came to 0.313.

On to “CGGTCCCGCTGGGTTCTAACCTGTTGCCAGC [CGGTCCCCTTG_LTGcore_GC_RTGcore_GC] (site CGGTCCCCTTG) (LTG core: GC, RTG core: GC)”, for which the “recombinant barcode read abundance (log10)” value was determined as 0.475.

For the sequence “CGGTCCCGGTGGGTTCTAACCTGTTGCCACC [CGGTCCCCTTG_LTGcore_GG_RTGcore_GG] (site CGGTCCCCTTG) (LTG core: GG, RTG core: GG)”, the “recombinant barcode read abundance (log10)” value was determined as 0.213.

Regarding “CGGTCCCTATGGGTTCTAACCTGTTGCCAAG [CGGTCCCCTTG_LTGcore_TA_RTGcore_CT] (site CGGTCCCCTTG) (LTG core: TA, RTG core: CT)”, the “recombinant barcode read abundance (log10)” value turned out to be 0.0831.

“GAGCCCAAGTGGGTTCTAACCTGTTGCCTCT [GAGCCCACTAG_LTGcore_AG_RTGcore_AG] (site GAGCCCACTAG) (LTG core: AG, RTG core: AG)”: the “recombinant barcode read abundance (log10)” value was determined as 0.229.

Consider “GAGCCCACATGGGTTCTAACCTGTTGCCTAG [GAGCCCACTAG_LTGcore_CA_RTGcore_CT] (site GAGCCCACTAG) (LTG core: CA, RTG core: CT)”, for which the “recombinant barcode read abundance (log10)” value was 0.304.

Consider “GAGCCCACTTGGGTTCTAACCTGTTGCCTCC [GAGCCCACTAG_LTGcore_CT_RTGcore_GG] (site GAGCCCACTAG) (LTG core: CT, RTG core: GG)”, for which the “recombinant barcode read abundance (log10)” value came to 0.136.

With “GAGCCCACTTGGGTTCTAACCTGTTGCCTGA [GAGCCCACTAG_LTGcore_CT_RTGcore_TC] (site GAGCCCACTAG) (LTG core: CT, RTG core: TC)”, the “recombinant barcode read abundance (log10)” value worked out at 0.207.

On to “GAGCCCACTTGGGTTCTAACCTGTTGCCTGC [GAGCCCACTAG_LTGcore_CT_RTGcore_GC] (site GAGCCCACTAG) (LTG core: CT, RTG core: GC)”, for which the “recombinant barcode read abundance (log10)” value was found to be 0.3.

For “GAGCCCACTTGGGTTCTAACCTGTTGCCTGG [GAGCCCACTAG_LTGcore_CT_RTGcore_CC] (site GAGCCCACTAG) (LTG core: CT, RTG core: CC)”, the “recombinant barcode read abundance (log10)” value was found to be 0.911.

As to “GAGCCCACTTGGGTTCTAACCTGTTGCCTGT [GAGCCCACTAG_LTGcore_CT_RTGcore_AC] (site GAGCCCACTAG) (LTG core: CT, RTG core: AC)”, the “recombinant barcode read abundance (log10)” value was 0.522.

For the sequence “GAGCCCACTTGGGTTCTAACCTGTTGCCTTC [GAGCCCACTAG_LTGcore_CT_RTGcore_GA] (site GAGCCCACTAG) (LTG core: CT, RTG core: GA)”, the “recombinant barcode read abundance (log10)” value was 0.518.

As for “GAGCCCAGCTGGGTTCTAACCTGTTGCCTAG [GAGCCCACTAG_LTGcore_GC_RTGcore_CT] (site GAGCCCACTAG) (LTG core: GC, RTG core: CT)”, the “recombinant barcode read abundance (log10)” value was determined as 0.266.

Regarding “GAGCCCATGTGGGTTCTAACCTGTTGCCTCA [GAGCCCACTAG_LTGcore_TG_RTGcore_TG] (site GAGCCCACTAG) (LTG core: TG, RTG core: TG)”, the “recombinant barcode read abundance (log10)” value is 0.995.
